Laboratory results as given in PMC7660650, “Chemical Starting Matter for HNF4α Ligand Discovery and Chemogenomics” (International Journal of Molecular Sciences, 2020).
Several values for one entry are separate records, joined by “and”; a condition that tells them apart may be missing. Equal entries are not always repeated.

Target: T1, Gal4-HNF4α (human HNF4α LBD) (Homo sapiens, UniProt P41235)
T1 construct: uniprot entry: P41235-1, residues 142-377; expressed in transfected cells; host or cells: HEK293T
T1 sequence (P41235 142-377): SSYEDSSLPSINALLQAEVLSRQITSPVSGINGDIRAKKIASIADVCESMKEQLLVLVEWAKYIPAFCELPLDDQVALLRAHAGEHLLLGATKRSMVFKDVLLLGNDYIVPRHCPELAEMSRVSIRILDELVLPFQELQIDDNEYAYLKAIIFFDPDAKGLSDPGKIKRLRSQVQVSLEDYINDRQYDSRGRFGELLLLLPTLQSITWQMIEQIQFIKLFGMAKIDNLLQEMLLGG
Test: Hybrid Gal4-HNF4α reporter gene assay in transiently transfected HEK293T cells
Assay type: cell-based
Settings: Table S1, primary screening, 50 µM

| Structure (SMILES) | HNF4a-screening_activity_(mean_of_n=2) |
| --- | --- |
| O=C(O)c1cccnc1Nc1ccccc1 [Prestw-Frag-1191, OC(=O)c1cccnc1Nc1ccccc1] | 1.24 |
| COc1ccc(CNc2ncccn2)cc1 [Prestw-Frag-1358, COc1ccc(CNc2ncccn2)cc1] | 0.8945 and 1.199 |
| OC(c1ccccc1)c1ccccn1 (stereo not drawn) [Prestw-Frag-2238, OC(c1ccccc1)c1ccccn1] | 0.8728 |
| COc1cc2c(cc1OC)CNCC2 [Prestw-Frag-1276, COc1cc2CCNCc2cc1OC] | 1.117 |
| Nc1ccccc1S(N)(=O)=O [Prestw-Frag-2473, Nc1ccccc1S(N)(=O)=O] | 1.395 |
| O=[N+]([O-])c1ccc(CO)cc1 [Prestw-Frag-1071, OCc1ccc(cc1)[N+]([O-])=O] | 1.036 and 1.173 |
| O=C1CN(Cc2ccccc2)CCN1 [Prestw-Frag-3459, O=C1CN(Cc2ccccc2)CCN1] | 1.076 |
| c1ccc(-c2ccccc2-c2nnn[nH]2)cc1 [Prestw-Frag-1441, c1ccc(cc1)-c1ccccc1-c1nnn[nH]1] | 1.051 and 0.7815 |
| Nc1nc2ccccc2o1 [Prestw-Frag-2256, Nc1nc2ccccc2o1] | 0.8277 |
| NC1CCC(=O)NC1=O (stereo not drawn) [Prestw-Frag-3716, NC1CCC(=O)NC1=O] | 1.139 |
| NCc1cscn1 [Prestw-Frag-3747, NCc1cscn1] | 0.9617 |
| CS(=O)(=O)c1ccc(CO)cc1 [Prestw-Frag-2234, CS(=O)(=O)c1ccc(CO)cc1] | 0.954 |
| COc1cc(C)cc(C)c1C [Prestw-Frag-1506, COc1cc(C)cc(C)c1C] | 1.143 |
| OCCCN1CCN(c2ccccc2)CC1 [Prestw-Frag-1944, OCCCN1CCN(CC1)c1ccccc1] | 1.133 |
| c1ccc2nccnc2c1 [Prestw-Frag-3033, c1ccc2nccnc2c1] | 0.9657 |
| NS(=O)(=O)c1ccc(C(=O)O)cc1 [Prestw-Frag-2123, NS(=O)(=O)c1ccc(cc1)C(O)=O] | 0.9355 |
| CN1CCN(S(=O)(=O)c2ccccc2)CC1 [Prestw-Frag-3012, CN1CCN(CC1)S(=O)(=O)c1ccccc1] | 0.8018 |
| c1ccc2c3c([nH]c2c1)CNCC3 [Prestw-Frag-1014, C1Cc2c(CN1)[nH]c1ccccc21] | 0.999 and 1.943 |
| Nc1ncnc2c1ncn2CCO [Prestw-Frag-3329, Nc1ncnc2n(CCO)cnc12] | 1.131 |
| c1ccc(C2CCNCC2)cc1 [Prestw-Frag-2537, C1CC(CCN1)c1ccccc1] | 0.9586 |
| O=C(c1ccccc1)N1CCNCC1 [Prestw-Frag-3677, O=C(N1CCNCC1)c1ccccc1] | 0.9693 |
| Oc1cccc2c1CCCC2 [Prestw-Frag-1156, Oc1cccc2CCCCc12] | 0.9426 |
| CCCOc1ccc(C(=O)OCC)cc1N [Prestw-Frag-2724, CCCOc1ccc(cc1N)C(=O)OCC] | 1.372 |
| Cc1ccc(S(=O)(=O)NC(N)=O)cc1 [Prestw-Frag-1667, Cc1ccc(cc1)S(=O)(=O)NC(N)=O] | 1.077 |
| Nc1nc(N)nc(-c2ccccc2)n1 [Prestw-Frag-3190, Nc1nc(N)nc(n1)-c1ccccc1] | 0.8184 |
| OCc1ccc2c(c1)OCO2 [Prestw-Frag-3741, OCc1ccc2OCOc2c1] | 1.114 |
| COC(=O)C(CO)c1ccccc1 (stereo not drawn) [Prestw-Frag-1406, COC(=O)C(CO)c1ccccc1] | 0.9811 and 0.9479 |
| Nc1ccccn1 [Prestw-Frag-2443, Nc1ccccn1] | 1.112 |
| O=C1COc2ccccc21 [Prestw-Frag-1361, O=C1COc2ccccc12] | 1.58 |
| Cc1ccccc1C(=O)Nc1ccccc1 [Prestw-Frag-3202, Cc1ccccc1C(=O)Nc1ccccc1] | 1.357 |
